Reference: PubChem BioAssay AID256 (DTP/NCI, 2004)
Toxic doses and inconclusive results are not listed. Rule for the calls: active = survival T/C of 150% or more; inactive = T/C below 125% in these data.

Tested on: CD2F1 mice, L1210 leukemia ip, survival T/C
Assay: NCI In Vivo Anticancer Drug Screen. Data for tumor model L1210 Leukemia (intraperitoneal) in CD2F1 (CDF1) mice
Details: endpoint: mean survival time, higher = longer survival
How it was run: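 Each value reflects a quotient of treated over vehicle control outcomes in mice with a transplanted tumor.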

[1] = dose: 100.0 mg/kg/injection, schedule: Q01DX009 (ip), vehicle: saline with Tween-80
[2] = dose: 200.0 mg/kg/injection, schedule: Q01DX009 (ip), vehicle: saline with Tween-80
[3] = dose: 400.0 mg/kg/injection, schedule: Q01DX009 (ip), vehicle: saline with Tween-80
[4] = dose: 100.0 mg/kg/injection, schedule: Q04DX003 (ip), vehicle: saline with Tween-80
[5] = dose: 200.0 mg/kg/injection, schedule: Q04DX003 (ip), vehicle: saline with Tween-80
[6] = dose: 400.0 mg/kg/injection, schedule: Q04DX003 (ip), vehicle: saline with Tween-80

Measured: T/C

C[C@]12CC[C@H](O)C[C@@]1(O)CC[C@@H]1[C@@H]2CC[C@]2(C)[C@@H](c3ccc(=O)oc3)C[C@H]3O[C@]132
inactive: dose: 2.5 mg/kg/injection, schedule: Q01DX009 (ip), vehicle: other 97 % of control | dose: 5.0 mg/kg/injection, schedule: Q01DX009 (ip), vehicle: other 92 % of control | dose: 10.0 mg/kg/injection, schedule: Q01DX009 (ip), vehicle: other 91 % of control

COc1ccc(/C(C)=N/N=C\c2cc(OC)c(OC)c(OC)c2)cc1
inactive: [1] 91 % of control | [2] 89 % of control | [3] 88 % of control

C=CCNC(=O)/C(=C\c1ccccc1)NC(C)=O
inactive: [1] 96 % of control | [4] 98 % of control | [2] 98 % of control | [5] 100 % of control | [3] 95 % of control | [6] 100 % of control

CC(C)C(=O)OCC(C)(C)COC(=O)C(C)C
inactive: dose: 100.0 mg/kg/injection, schedule: Q04DX003 (ip), vehicle: saline 87 % of control | dose: 200.0 mg/kg/injection, schedule: Q04DX003 (ip), vehicle: saline 87 % of control | dose: 400.0 mg/kg/injection, schedule: Q04DX003 (ip), vehicle: saline 94 % of control

CCCCCCCCC(O)CCCCCCCCC(=O)O (configuration not stated)
inactive: dose: 100.0 mg/kg/injection, schedule: Q01DX001 (ip), vehicle: saline with Tween-80 93 % of control | dose: 200.0 mg/kg/injection, schedule: Q01DX001 (ip), vehicle: saline with Tween-80 87 % of control | dose: 400.0 mg/kg/injection, schedule: Q01DX001 (ip), vehicle: saline with Tween-80 87 % of control

N/N=C(\N)c1ccccc1
inactive: dose: 100.0 mg/kg/injection, schedule: Q01DX001 (ip), vehicle: saline 117 % of control | dose: 200.0 mg/kg/injection, schedule: Q01DX001 (ip), vehicle: saline 123 % of control

CN1CCCN(C)C1c1cc(Br)ccc1O
inactive: dose: 6.25 mg/kg/injection, schedule: Q01DX009 (ip), vehicle: saline sonified 100 % of control | dose: 12.5 mg/kg/injection, schedule: Q01DX009 (ip), vehicle: saline sonified 104 % of control | dose: 25.0 mg/kg/injection, schedule: Q01DX009 (ip), vehicle: saline sonified 94 % of control | [4] 101 % of control | [5] 95 % of control | [6] 95 % of control

CCc1ccc(C(=O)CCC(=O)O)cc1
inactive: dose: 100.0 mg/kg/injection, schedule: Q04DX002 (ip), vehicle: saline with Tween-80 98 % of control | dose: 200.0 mg/kg/injection, schedule: Q04DX002 (ip), vehicle: saline with Tween-80 95 % of control | dose: 400.0 mg/kg/injection, schedule: Q04DX002 (ip), vehicle: saline with Tween-80 102 % of control

CN(C)S(=O)(=O)Oc1ccc(N)cc1
inactive: [4] 103 % of control | [5] 101 % of control | [6] 104 % of control
